# Results as given in patent US20230323293A1, “EXPANSION CULTURE MEDIUM AND CULTURE METHOD FOR NEURAL CELLS” (INSTITUTE OF ZOOLOGY, CHINESE ACADEMY OF SCIENCES, priority 2020, published 2023).
# Columns and labels:
# microglial progenitors = assay: Proliferation of microglial progenitors; assay type: cell-based; details: 10 μM
# Description: • (1) On the 0th day, ESCs were digested with Accutase into single cells, counted and inoculated into a V-bottom 96-well plate at a concentration of 10,000/well, and cultured statically. • (2) From the 0th to 4th day, the medium was microglial induction medium: DMEM/F12, 20% KOSR, 1× Glutamax, 1×NEAA, 50 ng/ml BMP4, 50 ng/ml VEGF, 20 ng/ml SCF, 10 μM Y-27632. • (3) On the 4th day, the suspended EBs were subjected to adherent culture in a 6-well plate, the culture medium was changed on the 4th day and then the static culture was carried out until the 11th day. From the 4th to 11th day, the culture medium was microglial differentiation medium: X-VIVO15, 1× Glutamax, 25 ng/ml IL-34, 50 ng/ml M-CSF. At this stage, Blebbistatin was added at a concentration of 10 μM. • (4) On the 11th day, the single cells suspended in the medium were collected and counted, and the EBs were continued to be cultured with the microglial differentiation medium, and the suspended cells in the supernatant were collected every 7 days for a total of 3 collections. • (5) Maturation of microglial cells: The supernatant was discarded after centrifugation, the cells were resuspended in a microglial maturation medium and inoculated on Matrigel pre-coated culture plates. The microglial cells matured after being continuously cultured for 14 days. […]
# astrocytes = assay: Expansion experiment of astrocytes; assay type: cell-based, human; details: 10 μM, P2 to P6, versus control group
# Description: (1) hESCs were cultured and differentiation was conducted until about 80% confluence. On the 0th day, the cells were dissociated with Dispase (1 U/mL), and the bottom cell mass was harvested and plated in an ultra-low adsorption 10 cm culture dish. • (2) From the 1st day, the neural induction was started by replacing with NIM medium supplemented with neural induction molecules 100 nM LDN193189 and 10 μM SB431542. […]
# GABA progenitor cells = assay: Proliferation of GABA progenitor cells; assay type: cell-based, human; details: 10 μM, P4 to P5, versus control group
# Description: (1) hESCs were cultured and differentiation was conducted until about 80% confluence. On the 0th day, the cells were dissociated with Dispase (1 U/mL), and the bottom cell mass was harvested and spread on an ultra-low adsorption 10 cm culture dish.
# (2) From the 1st day, the neural induction was started by using NIM medium supplemented with 100 nM LDN193189, 10 μM SB431542, and 2 μM XAV939. […]
# NSCs = assay: Proliferation of neural stem cells; assay type: cell-based, human; details: 10 μM, P4 to P6
# Description: The differentiation method was referred to Tchieu et al., A Modular Platform for Differentiation of Human PSCs into All Major Ectodermal Lineages. 2017, Cell Stem Cell 21, 399-410.
# NSCs were cultured with expansion medium after adherence, DMEM/F12 (1×, Gibco) supplemented with […] human (EGF) (R&D), […] (bFGF) (R&D), 5 μg/ml Heparin (Sigma), 2% B27 (Gibco), 1× GlutaMAX, and 10 μM Blebbistatin was added to the experimental group. Half of the culture medium was changed every day.
smiles,measurement,setting,value
"Cc1ccc2c(c1)C(=O)[C@]1(O)CCN(c3ccccc3)C1=N2 [Blebbistatin, (S)-(−)-Blebbistatin]",proliferation of microglial progenitors and differentiation efficiency,microglial progenitors,could promote the proliferation of microglial progenitors and improve the differentiation efficiency
same,number of suspension cells collected,"microglial progenitors; first two collections, versus control group",increased significantly
same,expansion ability of astrocytes,astrocytes,significantly improved
same,expansion ability of GABA progenitor cells,GABA progenitor cells,significantly improved
same,expansion of NSCs,NSCs,significantly promoted the expansion of NSCs
